Assay results from article PMC6440584 (Eurosurveillance, 2019).

Assays:
[1] = molecular target: neuraminidase (NA) of influenza A(H3N2) virus A/YOKOHAMA/88/2019 (Influenza A virus, UniProt A0A193ACB1); type: biochemical
[2] = molecular target: neuraminidase (NA) of influenza A(H3N2) virus A/YOKOHAMA/87/2019 (Influenza A virus, UniProt A0A193ACB1); type: biochemical

CCC(CC)[C@H](NC(C)=O)[C@@H]1[C@H](O)[C@@H](C(=O)O)C[C@H]1N=C(N)N [Peramivir, peramivir]
WHO criteria (fold change of IC50 compared with reference IC50) [1]: 0.13 (NI) (key: NI: normal inhibition) | WHO criteria (fold change of IC50 compared with reference IC50) [2]: 0.16 (NI) (key: NI: normal inhibition)
